Experimental data published in PubChem BioAssay (NCI).
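Protocol summary: plate cells (96-well), add compound at 5 concentrations, incubate 48 h, interpolate endpoints linearly. TGI denotes the concentration required for complete inhibition of growth.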

Columns and labels:
Assay in all cases: DTP human tumour cell line panel, 48 h
UACC-62 melanoma = system: UACC-62 melanoma
NCI-H226 lung = system: NCI-H226 lung
KM12 colon = system: KM12 colon
SF-295 CNS = system: SF-295 CNS
HCT-15 colon = system: HCT-15 colon
MDA-MB-231 breast = system: MDA-MB-231 breast
HS 578T breast = system: HS 578T breast
SF-539 CNS = system: SF-539 CNS
SNB-19 CNS = system: SNB-19 CNS
NCI-H460 lung = system: NCI-H460 lung
HCC-2998 colon = system: HCC-2998 colon
T-47D breast = system: T-47D breast
SK-MEL-5 melanoma = system: SK-MEL-5 melanoma
HCT-116 colon = system: HCT-116 colon
OVCAR-3 ovarian = system: OVCAR-3 ovarian
EKVX NSCLC = system: EKVX NSCLC
K-562 leukemia = system: K-562 leukemia
NCI-H23 lung = system: NCI-H23 lung
HOP-62 NSCLC = system: HOP-62 NSCLC
MDA-MB-435 = system: MDA-MB-435
HL-60(TB) leukemia = system: HL-60(TB) leukemia
DU-145 prostate = system: DU-145 prostate
HOP-92 NSCLC = system: HOP-92 NSCLC
A498 renal = system: A498 renal
PC-3 prostate = system: PC-3 prostate
UACC-257 melanoma = system: UACC-257 melanoma
NCI-H522 lung = system: NCI-H522 lung
RPMI-8226 leukemia = system: RPMI-8226 leukemia
A549 NSCLC = system: A549 NSCLC
MCF7 breast = system: MCF7 breast
SN12C renal = system: SN12C renal
OVCAR-8 ovarian = system: OVCAR-8 ovarian
LOX IMVI melanoma = system: LOX IMVI melanoma
NCI/ADR-RES ovarian = system: NCI/ADR-RES ovarian
M14 melanoma = system: M14 melanoma
COLO 205 colon = system: COLO 205 colon
MALME-3M melanoma = system: MALME-3M melanoma
UO-31 renal = system: UO-31 renal
TK-10 renal = system: TK-10 renal
U251 CNS = system: U251 CNS
MOLT-4 leukemia = system: MOLT-4 leukemia
786-0 renal = system: 786-0 renal
HT29 colon = system: HT29 colon
CCRF-CEM leukemia = system: CCRF-CEM leukemia
ACHN renal = system: ACHN renal
MDA-N = system: MDA-N
SK-MEL-28 melanoma = system: SK-MEL-28 melanoma
SF-268 CNS = system: SF-268 CNS
RXF 393 renal = system: RXF 393 renal
OVCAR-5 ovarian = system: OVCAR-5 ovarian
SK-OV-3 ovarian = system: SK-OV-3 ovarian
SNB-75 CNS = system: SNB-75 CNS
CAKI-1 renal = system: CAKI-1 renal
SW-620 colon = system: SW-620 colon

SMILES: Cc1ccc2c(/C=C/c3ccc(N(C)C)cc3)ccnc2c1C
- TGI (UACC-62 melanoma): 73.1 µM
- TGI (NCI-H226 lung): > 100 µM
- TGI (KM12 colon): 72.3 µM
- TGI (SF-295 CNS): > 100 µM
- TGI (HCT-15 colon): > 100 µM
- TGI (MDA-MB-231 breast): > 100 µM
- TGI (HS 578T breast): > 100 µM
- TGI (SF-539 CNS): > 100 µM
- TGI (SNB-19 CNS): > 100 µM
- TGI (NCI-H460 lung): > 100 µM
- TGI (HCC-2998 colon): 95.6 µM
- TGI (T-47D breast): > 100 µM
- TGI (SK-MEL-5 melanoma): 43.2 µM
- TGI (HCT-116 colon): > 100 µM
- TGI (OVCAR-3 ovarian): > 100 µM
- TGI (EKVX NSCLC): > 100 µM
- TGI (K-562 leukemia): > 100 µM
- TGI (NCI-H23 lung): > 100 µM
- TGI (HOP-62 NSCLC): > 100 µM
- TGI (MDA-MB-435): > 100 µM
- TGI (HL-60(TB) leukemia): 80.7 µM
- TGI (DU-145 prostate): > 100 µM
- TGI (HOP-92 NSCLC): 57.1 µM
- TGI (A498 renal): > 100 µM
- TGI (PC-3 prostate): 64.3 µM
- TGI (UACC-257 melanoma): > 100 µM
- TGI (NCI-H522 lung): 63.9 µM
- TGI (RPMI-8226 leukemia): 31 µM
- TGI (A549 NSCLC): > 100 µM
- TGI (MCF7 breast): 61.3 µM
- TGI (SN12C renal): > 100 µM
- TGI (OVCAR-8 ovarian): 60.8 µM
- TGI (LOX IMVI melanoma): > 100 µM
- TGI (NCI/ADR-RES ovarian): > 100 µM
- TGI (M14 melanoma): > 100 µM
- TGI (COLO 205 colon): 55.6 µM
- TGI (MALME-3M melanoma): 40.6 µM
- TGI (UO-31 renal): 54 µM
- TGI (TK-10 renal): 43.6 µM
- TGI (U251 CNS): > 100 µM
- TGI (MOLT-4 leukemia): > 100 µM
- TGI (786-0 renal): > 100 µM
- TGI (HT29 colon): 62.3 µM
- TGI (CCRF-CEM leukemia): > 100 µM
- TGI (ACHN renal): 96.7 µM
- TGI (MDA-N): > 100 µM
- TGI (SK-MEL-28 melanoma): 52.9 µM
- TGI (SF-268 CNS): > 100 µM
- TGI (RXF 393 renal): 48.4 µM
- TGI (OVCAR-5 ovarian): > 100 µM
- TGI (SK-OV-3 ovarian): 67.9 µM
- TGI (SNB-75 CNS): 38.5 µM
- TGI (CAKI-1 renal): > 100 µM
- TGI (SW-620 colon): > 100 µM
